Measurements reported in ChEMBL document CHEMBL5137037, “Phage Display Selected Cyclic Peptide Inhibitors of Kallikrein-Related Peptidases 5 and 7 and Their In Vivo Delivery to the Skin” (J Med Chem, 2022).
Numbered stars: 1 amine (or outer) side, 2 acyl side, 3 side chain; on linkers, the order of the positions; unused ones are H or OH. Bridge positions count the residues as written; N and C are the ends. Peptide text beside a SMILES is read from it. * marks the point of attachment. Pyridine(2,6-diCH2) = c1cc(C[*:1])nc(C[*:2])c1; Pyrrolidin1yl(2S-Ac) = CC(=O)[C@@H]1CCCN1*; CH2COCH2 = O=C(C[*:1])C[*:2]

How the values were obtained:
Kallikrein-7 = Kallikrein-7 (Homo sapiens, UniProt P49862); assay: Inhibition of C-terminal poly-His-tagged human recombinant KLK7 (30 to 253 residues) transfected in CHO cells assessed as inhibition constant using KHLY-pNA as fluorogenic substrate incubated for 30 mins by fluorescence plate reader assay; assay type: cell-based
Chain of Kallikrein-7 (P49862 whole entry, the tested form may be a part): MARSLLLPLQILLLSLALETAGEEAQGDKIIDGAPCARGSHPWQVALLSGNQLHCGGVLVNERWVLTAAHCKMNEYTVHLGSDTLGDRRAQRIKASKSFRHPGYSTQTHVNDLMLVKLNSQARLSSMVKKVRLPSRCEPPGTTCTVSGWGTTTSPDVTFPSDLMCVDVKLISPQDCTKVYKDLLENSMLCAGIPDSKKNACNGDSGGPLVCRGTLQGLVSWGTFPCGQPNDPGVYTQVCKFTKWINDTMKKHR

Kallikrein-5 = biological target: T1, Kallikrein-5 (Homo sapiens, UniProt Q9Y337); assay: Inhibition of C-terminal poly-His-tagged human recombinant KLK5 (30 to 293 residues) transfected in CHO cells assessed as inhibition constant using Boc-VPR-AMC as fluorogenic substrate incubated for 30 mins by fluorescence plate reader assay; assay type: cell-based
T1 sequence (Q9Y337 whole entry): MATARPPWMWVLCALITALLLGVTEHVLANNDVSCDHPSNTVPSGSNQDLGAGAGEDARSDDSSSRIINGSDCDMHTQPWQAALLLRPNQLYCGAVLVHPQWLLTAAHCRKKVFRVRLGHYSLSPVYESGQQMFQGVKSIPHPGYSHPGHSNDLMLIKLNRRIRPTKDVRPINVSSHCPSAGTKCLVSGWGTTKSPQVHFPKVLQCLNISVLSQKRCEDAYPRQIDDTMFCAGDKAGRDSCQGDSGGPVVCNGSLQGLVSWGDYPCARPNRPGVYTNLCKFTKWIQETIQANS

Row | Structure (SMILES) | Ki (Kallikrein-7) [nM] | other results
1 | CCCCCCCCCCCCCCCC(=O)NCCCC[C@H](NC(=O)[C@H](CCC(=O)O)NC(=O)[C@H](Cc1ccc(O)cc1)NC(=O)[C@H](CCC(=O)O)NC(=O)COCCOCCNC(=O)c1ccc(-c2c3ccc(=O)cc-3oc3cc(O)ccc23)c(C(=O)O)c1)C(=O)N[C@@H](CCC(=O)O)C(=O)N[C@@H](Cc1ccc(O)cc1)C(=O)N[C@@H](CCC(=O)O)C(=O)NCCOCCOCC(=O)NCCCC[C@H](NC(=O)CNC(=O)[C@@H]1CSCC(=O)CSC[C@H](NC(=O)[C@@H]2CCCN2)C(=O)N[C@@H](CC(C)C)C(=O)N[C@@H](Cc2ccc(O)cc2)C(=O)N[C@@H](CCCC)C(=O)N[C@@H](C)C(=O)N[C@@H](CCCNC(=N)N)C(=O)N1)C(=O)NCC(N)=O | 7 | –
2 | CC(C)C[C@@H]1NC(=O)[C@@H](NC(=O)[C@H](CCC(N)=O)NC(=O)[C@@H]2CCCN2C(=O)[C@H](CC(N)=O)NC(=O)[C@H](C)NC(=O)[C@@H]2CSCc3cccc(n3)CSC[C@H](NC(=O)[C@H](C)N)C(=O)N[C@@H]([C@@H](C)O)C(=O)N[C@@H](CCCNC(=N)N)C(=O)N[C@@H](CCC(=O)O)C(=O)N[C@@H](Cc3ccc(O)cc3)C(=O)N[C@@H](CC(N)=O)C(=O)N3CCC[C@H]3C(=O)N[C@@H](CCC(N)=O)C(=O)N2)CSCc2cccc(n2)CSC[C@@H](C(=O)N[C@@H](Cc2cnc[nH]2)C(=O)O)NC1=O | – | Ki (Kallikrein-5): 6.1 nM
3 | CC(C)C[C@@H]1NC(=O)[C@H](Cc2ccc(O)cc2)NC(=O)[C@H](CC(C)C)NC(=O)[C@@H](N)CSCc2cccc(n2)CSC[C@@H](C(=O)N[C@@H](CO)C(=O)O)NC(=O)[C@H](C)NC1=O (H-CLYLACS-OH; linker 1-6 via Pyridine(2,6-diCH2)) | 200 | –
4 | CC(C)C[C@@H]1NC(=O)[C@@H](NC(=O)[C@@H](N)Cc2ccccc2)CSCC(=O)CSC[C@@H](C(=O)N[C@@H](CCC(N)=O)C(=O)N2CCC[C@H]2C(=O)N2CCC[C@H]2C(=O)N[C@@H](CCC(=O)O)C(=O)N[C@@H](C)C(=O)N[C@H]2CSCC(=O)CSC[C@@H](C(=O)N[C@@H](CCC(=O)O)C(=O)O)NC(=O)[C@H](CCC(N)=O)NC(=O)[C@H](CO)NC(=O)[C@@H]3CCCN3C2=O)NC(=O)[C@H](Cc2c[nH]c3ccccc23)NC(=O)[C@@H]2CCCN2C(=O)[C@H](Cc2c[nH]c3ccccc23)NC1=O (H-FCLWPWCQPPEACPSQCE-OH; linker 2-7, 13-17 via CH2COCH2) | > 1000 | –
5 | CC(C)C[C@@H]1NC(=O)[C@@H](NC(=O)[C@@H]2CCCN2)CSCc2cccc(n2)CSC[C@@H](C(=O)N[C@@H](CO)C(=O)O)NC(=O)[C@H](CO)NC(=O)[C@H](CC(C)C)NC(=O)[C@H](Cc2ccccc2)NC1=O (H-PCLFLSCS-OH; linker 2-7 via Pyridine(2,6-diCH2)) | 220 | –
6 | CC(C)C[C@@H]1NC(=O)[C@H](Cc2ccc(O)cc2)NC(=O)[C@H](CC(C)C)NC(=O)[C@@H](NC(=O)[C@@H]2CCCN2)CSCc2cccc(n2)CSC[C@@H](C(=O)N[C@@H](CO)C(=O)O)NC(=O)[C@H](C)NC1=O (H-PCLYLACS-OH; linker 2-7 via Pyridine(2,6-diCH2)) | 17.5 | –
7 | CC(C)C[C@@H]1NC(=O)[C@H](Cc2ccc(O)cc2)NC(=O)[C@H](CC(C)C)NC(=O)[C@@H](NC(=O)[C@@H]2CCCN2)CSCC(=O)CSC[C@@H](C(=O)N[C@@H](CO)C(=O)O)NC(=O)[C@H](CCC(N)=O)NC(=O)[C@H](C)NC1=O (H-PCLYLAQCS-OH; linker 2-8 via CH2COCH2) | 36 | –
8 | CC(=O)[C@@H]1CCCN1C(=O)[C@@H]1CSCc2cccc(n2)CSC[C@H](NC(=O)[C@@H]2CCCN2)C(=O)N[C@@H](CC(C)C)C(=O)N[C@@H](Cc2ccc(O)cc2)C(=O)N[C@@H](CC(C)C)C(=O)N[C@@H](CO)C(=O)N1 (H-PCLYLSC-{Pyrrolidin1yl(2S-Ac)}; linker 2-7 via Pyridine(2,6-diCH2)) | 50 | –
9 | CC(C)C[C@@H]1NC(=O)[C@@H](NC(=O)[C@@H]2CCCN2)CSCc2cccc(n2)CSC[C@@H](C(=O)N[C@@H](CO)C(=O)O)NC(=O)[C@H](CO)NC(=O)[C@H](CCC(N)=O)NC(=O)[C@H](Cc2ccc(O)cc2)NC1=O (H-PCLYQSCS-OH; linker 2-7 via Pyridine(2,6-diCH2)) | 440 | –
10 | CSCC[C@@H]1NC(=O)[C@H](Cc2ccc(O)cc2)NC(=O)[C@H](CC(C)C)NC(=O)[C@@H](NC(=O)[C@@H](N)CCC(N)=O)CSCC(=O)CSC[C@@H](C(=O)N[C@@H](CO)C(=O)N2CCC[C@H]2C(=O)N[C@H](C(=O)N[C@H]2CSCC(=O)CSC[C@@H](C(=O)N[C@@H](CCC(N)=O)C(=O)O)NC(=O)[C@H](Cc3ccc(O)cc3)NC(=O)[C@H](CCC(N)=O)NC(=O)[C@H](CCC(N)=O)NC(=O)[C@@H]3CCCN3C2=O)C(C)C)NC(=O)[C@H](CCCNC(=N)N)NC(=O)[C@H](C)NC1=O (H-QCLYMARCSPVCPQQYCQ-OH; linker 2-8, 12-17 via CH2COCH2) | 9 | –
11 | CC(C)C[C@@H]1NC(=O)[C@H](Cc2ccc(O)cc2)NC(=O)[C@H](CC(C)C)NC(=O)[C@@H](NC(=O)[C@@H]2CCCN2)CSCc2cccc(n2)CSC[C@@H](C(=O)O)NC(=O)[C@H](C)NC1=O (mixture of isomers) | 19 | –
12 | CC(C)C[C@@H]1NC(=O)[C@@H](NC(=O)[C@@H]2CCCN2)CSCC(=O)CSC[C@@H](C(=O)N[C@@H](CO)C(=O)O)NC(=O)[C@H](CCCNC(=N)N)NC(=O)[C@H](CO)NC(=O)[C@H](CC(C)C)NC(=O)[C@H](Cc2ccc(O)cc2)NC1=O (racemic) | – | Ki (Kallikrein-7; cho): 90 nM

Now from value to compound, other results behind:

Row | Ki (Kallikrein-7) [nM] | Structure (SMILES) | other results
13 | 66 | CC[C@H](C)[C@@H]1NC(=O)[C@H](CCCNC(=N)N)NC(=O)[C@H](Cc2ccc(O)cc2)NC(=O)[C@H](CC(C)C)NC(=O)[C@@H](NC(=O)[C@H](CCC(N)=O)NC(=O)[C@@H]2CCCN2C(=O)[C@@H]2CSCc3cccc(n3)CSC[C@H](NC(=O)[C@@H](N)Cc3c[nH]cn3)C(=O)N[C@@H](CCCNC(=N)N)C(=O)N[C@@H](CCCCN)C(=O)NCC(=O)N[C@@H](CC(C)C)C(=O)N[C@@H](CC(=O)O)C(=O)N[C@@H](CCCNC(=N)N)C(=O)N2)CSCc2cccc(n2)CSC[C@@H](C(=O)N[C@@H](CO)C(N)=O)NC1=O (H-HCRKGLDRCPQCLYRICS-NH2; linker 2-9, 12-17 via Pyridine(2,6-diCH2)) | –
14 | 29.4 | CC(C)C[C@@H]1NC(=O)[C@@H](NC(=O)[C@@H]2CCCN2)CSCc2cccc(n2)CSC[C@@H](C(=O)N[C@@H](CO)C(=O)O)NC(=O)[C@H](CO)NC(=O)[C@H](CC(C)C)NC(=O)[C@H](Cc2ccc(O)cc2)NC1=O (H-PCLYLSCS-OH; linker 2-7 via Pyridine(2,6-diCH2)) | –
15 | 52 | CC(C)C[C@@H]1NC(=O)[C@@H](NC(=O)[C@@H]2CCCN2)CSCc2cccc(n2)CSC[C@@H](C(=O)N[C@@H](CO)C(=O)O)NC(=O)[C@H]([C@@H](C)O)NC(=O)[C@H](CC(C)C)NC(=O)[C@H](Cc2ccc(O)cc2)NC1=O (H-PCLYLTCS-OH; linker 2-7 via Pyridine(2,6-diCH2)) | –
16 | 10.1 | CSCC[C@@H]1NC(=O)[C@H](Cc2ccc(O)cc2)NC(=O)[C@H](CC(C)C)NC(=O)[C@@H](NC(=O)[C@@H]2CCCN2)CSCC(=O)CSC[C@@H](C(=O)N[C@@H](CO)C(=O)O)NC(=O)[C@H](CCCNC(=N)N)NC(=O)[C@H](C)NC1=O (H-PCLYMARCS-OH; linker 2-8 via CH2COCH2) | –
17 | 53 | CC(C)C[C@@H]1NC(=O)[C@@H](NC(=O)[C@@H]2CCCN2)CSCc2cccc(n2)CSC[C@@H](C(=O)N[C@@H](CO)C(=O)O)NC(=O)[C@H](CO)NC(=O)[C@H](CCCNC(=N)N)NC(=O)[C@H](Cc2ccc(O)cc2)NC1=O (H-PCLYRSCS-OH; linker 2-7 via Pyridine(2,6-diCH2)) | –
18 | 32 | CC[C@H](C)[C@@H]1NC(=O)[C@H](Cc2ccc(O)cc2)NC(=O)[C@H](CC(C)C)NC(=O)[C@@H](NC(=O)[C@@H](N)CCC(N)=O)CSCc2cccc(n2)CSC[C@@H](C(=O)N2CCC[C@H]2C(=O)N[C@@H](CO)C(=O)N[C@@H](C)C(=O)N[C@@H](C)C(=O)N[C@@H](CCCCN)C(=O)N[C@H]2CSCc3cccc(n3)CSC[C@@H](C(=O)N[C@@H](CCC(N)=O)C(N)=O)NC(=O)CNC(=O)[C@H](CC(N)=O)NC(=O)[C@H](CC(=O)O)NC2=O)NC(=O)[C@H](C)NC1=O (H-QCLYIACPSAAKCDNGCQ-NH2; linker 2-7, 13-17 via Pyridine(2,6-diCH2)) | –
19 | 94 | CSCC[C@H](NC(=O)[C@@H]1CSCc2cccc(n2)CSC[C@H](NC(=O)[C@@H](N)CCCNC(=N)N)C(=O)N[C@@H](CC(=O)O)C(=O)N[C@@H](CO)C(=O)N[C@@H](CO)C(=O)N[C@@H](CCC(N)=O)C(=O)N1)C(=O)N[C@@H](CCC(N)=O)C(=O)NCC(=O)N[C@@H](CCC(N)=O)C(=O)N[C@H]1CSCc2cccc(n2)CSC[C@@H](C(=O)N2CCC[C@H]2C(=O)O)NC(=O)[C@H](CO)NC(=O)[C@H](CCCNC(=N)N)NC(=O)[C@H](Cc2ccc(O)cc2)NC(=O)[C@H](CC(C)C)NC1=O (H-RCDSSQCMQGQCLYRSCP-OH; linker 2-7, 12-17 via Pyridine(2,6-diCH2)) | –
20 | 12 | CC(C)C[C@@H]1NC(=O)[C@@H](NC(=O)C(N)CCC(N)=O)CSCc2cccc(n2)CSC[C@@H](C(=O)N[C@@H](CO)C(=O)O)NC(=O)[C@H](CO)NC(=O)[C@H](CC(C)C)NC(=O)[C@H](Cc2ccc(O)cc2)NC1=O (single isomer, unassigned) | –
21 | 8.8 | CC(C)C[C@@H]1NC(=O)[C@@H](NC(=O)C(N)CCCNC(=N)N)CSCc2cccc(n2)CSC[C@@H](C(=O)N[C@@H](CO)C(=O)O)NC(=O)[C@H](CO)NC(=O)[C@H](CC(C)C)NC(=O)[C@H](Cc2ccc(O)cc2)NC1=O (single isomer, unassigned) | –
